In ChEMBL document CHEMBL4765458, “Synthesis and biological evaluation of organoselenium (NSAIDs-SeCN and SeCF) derivatives as potential anticancer agents” (Eur J Med Chem, 2020):
Active and inactive are the calls of the source. The calls are words filed in the database; no cut-off is given here.

Legend:
[1] = Antioxidant activity assessed as GPx-like activity by measuring oxidation of NADPH to NADP+ by NADPH-reductase coupled assay; format: functional
SW480 [2] = experiment: Cytotoxicity against human SW480 cells assessed as reduction in cell viability measured after 24 hrs by MTT assay; format: functional, cell-based; settings: SW480, 24 h
SW480 [3] = experiment: Cytotoxicity against human SW480 cells assessed as reduction in cell viability measured after 48 hrs by MTT assay; format: functional, cell-based; settings: SW480, 48 h
SW480 [4] = experiment: Cytotoxicity against human SW480 cells assessed as reduction in cell viability measured after 72 hrs by MTT assay; format: functional, cell-based; settings: SW480, 72 h
HeLa [5] = experiment: Cytotoxicity against human HeLa cells assessed as reduction in cell viability measured after 24 hrs by MTT assay; format: functional, cell-based
HeLa [6] = experiment: Cytotoxicity against human HeLa cells assessed as reduction in cell viability measured after 48 hrs by MTT assay; format: functional, cell-based
HeLa [7] = experiment: Cytotoxicity against human HeLa cells assessed as reduction in cell viability measured after 72 hrs by MTT assay; format: functional, cell-based
A549 [8] = experiment: Cytotoxicity against human A549 cells assessed as reduction in cell viability measured after 24 hrs by MTT assay; format: functional, cell-based; settings: A549, 24 h
A549 [9] = experiment: Cytotoxicity against human A549 cells assessed as reduction in cell viability measured after 72 hrs by MTT assay; format: functional, cell-based; settings: A549, 72 h
MCF7 [10] = experiment: Cytotoxicity against human MCF7 cells assessed as reduction in cell viability measured after 24 hrs by MTT assay; format: functional, cell-based; settings: MCF7, 24 h
MCF7 [11] = experiment: Cytotoxicity against human MCF7 cells assessed as reduction in cell viability measured after 48 hrs by MTT assay; format: functional, cell-based; settings: MCF7, 48 h
MCF7 [12] = experiment: Cytotoxicity against human MCF7 cells assessed as reduction in cell viability measured after 72 hrs by MTT assay; format: functional, cell-based; settings: MCF7, 72 h
MCF7 [13] = experiment: Induction of apoptosis in human MCF7 cells assessed as down regulation of Bcl-2 expression at IC50 measured after 48 hrs by ELISA relative to control; format: functional
MCF7 [14] = experiment: Induction of apoptosis in human MCF7 cells assessed as up regulation of IL-2 expression at IC50 measured after 48 hrs by ELISA relative to control; format: functional
MCF7 [15] = experiment: Induction of apoptosis in human MCF7 cells assessed as up regulation of caspase-3 expression at IC50 measured after 48 hrs by ELISA relative to control; format: functional
[16] = Antioxidant activity assessed as DPPH radical scavenging activity incubated for 30 mins under dark condition relative to control; format: functional; parameters: concentration or dose not given beside the values
A549 [17] = experiment: cells; settings: Homo sapiens, A549, 48 h
Description: Cytotoxicity against human A549 cells assessed as reduction in cell viability measured after 48 hrs by MTT assay

[18] = Antioxidant activity assessed as bleomycin-Fe2+-induced DNA degradation by measuring absorbance at 0.1 mg/ml after 1 hr; format: functional

Row | SMILES | Activity [1] | IC50 (SW480 [2]) [µM] | IC50 (SW480 [3]) [µM] | IC50 (SW480 [4]) [µM] | IC50 (HeLa [5]) [µM] | IC50 (HeLa [6]) [µM] | IC50 (HeLa [7]) [µM] | IC50 (A549 [8]) [µM] | IC50 (A549 [9]) [µM] | IC50 (MCF7 [10]) [µM] | IC50 (MCF7 [11]) [µM] | IC50 (MCF7 [12]) [µM] | Activity (MCF7 [13]) | Activity (MCF7 [14]) | Activity (MCF7 [15]) | inhibition [16] [%] | IC50 (A549 [17]) [µM] | fold change (FC) (MCF7 [15]) | deltaA [18]
1 | CC(=O)Oc1ccccc1C(=O)NCCC[Se]C#N | Active | 9.3 | 7.4 | 8.2 | 31.4 | 28.4 | 18.3 | 18.4 | 22.3 | 6.8 | 8.6 | 10.3 | Active | Active | Active | 52.1 | 22.6 |  | 
2 | CC(=O)Oc1ccccc1C(=O)NCCC[Se]C(F)(F)F | Active | 8.2 | 7.2 | 7.8 | 28.7 | 26.3 | 15.4 | 16.4 | 17.3 | 3.5 | 4.2 | 4.4 | >50% | Active |  | 72.5 | 18.6 | 5 | 
3 | O=C1O[C@H]([C@@H](O)CO)C(O)=C1O |  |  |  |  |  |  |  |  |  |  |  |  |  |  |  | 92.4 |  |  | 295
